{"source": "patent US4920231A", "about": "“Process of braking triflouromethyl compounds” (Roussel Uclaf, priority 1988, dated 1990)", "format_in_all_cases": "in vivo", "key": {"house-fly": {"tested_on": "house-fly", "assay": "Study of lethal activity on the house-fly (topical application)", "conditions": "four-day old female house-flies, topical 1 μl acetone solution on dorsal thorax, mortality at 24 hours; without synergist or with piperonyl butoxide (table does not say which)", "method": "A. Study of lethal activity on the house-fly\nThe insects tested were four-day old female house-flies and the test was carried out by topical application of 1 μl of acetone solution on the dorsal thorax of the insects using an Arnold micromanipulator. 50 individuals per treatment were used and a mortality check was carried out 24 hours after treatment. The tests were carried out without a synergist or with the addition of piperonyl butoxide (10 parts of synergist per 1 part of test compound). The experimental results, given in the following table, are expressed in LD 50 (in nanograms) necessary to kill 50% of the insects: […]"}, "[1]": {"tested_on": "Boophilus microplus females", "assay": "Study of the activity on inhibition of the reproduction of Boophilus microplus ticks", "conditions": "for activity on inhibition of reproduction of Boophilus microplus ticks (conclusion): 100 to 0.19 ppm; for inhibition at 0.19 ppm / inhibition at 0.38 ppm / inhibition at 0.75 ppm / inhibition at 1.5 ppm / inhibition at 3.1 ppm / inhibition at 6.2 ppm / inhibition at 12.5 ppm / inhibition at 25 ppm / inhibition at 50 ppm / inhibition at 100 ppm: Rhipicephalus microplus, 5 min, females submerged for 5 minutes", "method": "(§1) The substance under test was dissolved in a mixture of dimethylformamide, emulsifiers and Arcopal so as to obtain a concentrate emulsifying at 10%. This concentrate was diluted with water to obtain solutions of the desired concentrations of 100, 10 and 1 ppm. Using a spraying tower, the various solutions were sprayed over the larvae of tropical cattle ticks of Boophilus microplus type, and after 24 hours, the percentage of mortality was determined by counting the living and dead larvae. The results are as follows:\n(b) Study of the activity on inhibition of the reproduction of Boophilus microplus ticks\nBoophilus microplus females, ready to lay eggs, were submerged for 5 minutes in the solutions prepared above and then they were placed in a heated chamber to lay the eggs. […]"}, "[2]": {"tested_on": "Boophilus microplus larvae", "assay": "Study of the activity on Boophilus microplus larvae (spraying tower, % mortality)", "conditions": "for activity on Boophilus microplus larvae (conclusion): 100, 10 and 1 ppm; for mortality at 1 ppm / mortality at 10 ppm / mortality at 100 ppm: Rhipicephalus microplus, in Bos taurus, larvae, after 24 hours", "method": "C. Study of the acaricide activity in animals\n(a) Study of the activity on Boophilus microplus larvae\nas §1, with “larvae.” for “larvae. The results are as follows:”"}, "Aphis cracivora": {"tested_on": "Aphis cracivora", "assay": "Study of the lethal effect on Aphis cracivora (contact-injection method, treated broad-bean leaf)", "conditions": "7-day old adults, contact with treated leaf for one hour, mortality after 24 hours", "method": "B. Study of the lethal effect on Aphis cracivora\n7-day old adults were used and 10 aphids per concentration used were employed. A contact-injection method was used and the treatment of a broad-bean leaf was carried out with a Fisher gun, the leaf being placed in a plastic Petri dish on a circle of damp paper. The treatment was carried out with 2 ml of acetone solution of the product under test (1 ml per side of leaf). The infestation by the insects was brought about after drying the leaf and the insects were kept in contact with the leaf for one hour. Insects were placed on untreated leaves and the mortality was checked after 24 hours."}}, "data": [{"compound": "C[C@@H](OC(=O)[C@@H]1[C@@H](/C=C(/c2ccc(Cl)cc2)C(F)(F)F)C1(C)C)c1cccc(Oc2ccccc2)n1", "note": "[Example 3, 1-(6-phenoxy-2-pyridyl)-ethyl [1R-[1α(R*), 3β]]2,2-dimethyl-3-[(ΔZ)-2-(4-chlorophenyl)-3,3,3-trifluoro-1-propenyl]-cyclopropane carboxylate]", "values": [{"measurement": "LD 50", "setting": "house-fly", "value": 19.6, "unit": "ng/insect"}, {"measurement": "activity on inhibition of reproduction of Boophilus microplus ticks (conclusion)", "setting": "[1]", "value": "remarkable activity"}, {"measurement": "inhibition at 0.19 ppm", "setting": "[1]", "value": 100, "unit": "%"}, {"measurement": "inhibition at 0.38 ppm", "setting": "[1]", "value": 100, "unit": "%"}, {"measurement": "inhibition at 0.75 ppm", "setting": "[1]", "value": 100, "unit": "%"}, {"measurement": "inhibition at 1.5 ppm", "setting": "[1]", "value": 100, "unit": "%"}, {"measurement": "inhibition at 3.1 ppm", "setting": "[1]", "value": 100, "unit": "%"}, {"measurement": "inhibition at 6.2 ppm", "setting": "[1]", "value": 100, "unit": "%"}, {"measurement": "inhibition at 12.5 ppm", "setting": "[1]", "value": 100, "unit": "%"}, {"measurement": "inhibition at 25 ppm", "setting": "[1]", "value": 100, "unit": "%"}, {"measurement": "inhibition at 50 ppm", "setting": "[1]", "value": 100, "unit": "%"}, {"measurement": "inhibition at 100 ppm", "setting": "[1]", "value": 100, "unit": "%"}, {"measurement": "activity on Boophilus microplus larvae (conclusion)", "setting": "[2]", "value": "remarkable activity"}, {"measurement": "mortality at 1 ppm", "setting": "[2]", "value": 100, "unit": "%"}, {"measurement": "mortality at 10 ppm", "setting": "[2]", "value": 100, "unit": "%"}, {"measurement": "mortality at 100 ppm", "setting": "[2]", "value": 100, "unit": "%"}, {"measurement": "LC50", "setting": "Aphis cracivora", "value": 1.34, "unit": "µg/mL"}]}, {"compound": "CC1(C)[C@H](/C=C(/c2ccc(Cl)cc2)C(F)(F)F)[C@H]1C(=O)O[C@H](C#N)c1ccc(F)c(Oc2ccccc2)c1", "note": "[Example 4, α-Cyano-4-fluoro-3-phenoxy-benzyl [1R-[1α(S*)-3β]-2,2-dimethyl-3-[(ΔZ) 2-(4-chlorophenyl)-3,3,3-trifluoro-1-propenyl]-cyclopropane carboxylate]", "values": [{"measurement": "LD 50", "setting": "house-fly", "value": 5.3, "unit": "ng/insect"}, {"measurement": "activity on inhibition of reproduction of Boophilus microplus ticks (conclusion)", "setting": "[1]", "value": "remarkable activity"}, {"measurement": "inhibition at 0.19 ppm", "setting": "[1]", "value": 100, "unit": "%"}, {"measurement": "inhibition at 0.38 ppm", "setting": "[1]", "value": 100, "unit": "%"}, {"measurement": "inhibition at 0.75 ppm", "setting": "[1]", "value": 100, "unit": "%"}, {"measurement": "inhibition at 1.5 ppm", "setting": "[1]", "value": 100, "unit": "%"}, {"measurement": "inhibition at 3.1 ppm", "setting": "[1]", "value": 100, "unit": "%"}, {"measurement": "inhibition at 6.2 ppm", "setting": "[1]", "value": 100, "unit": "%"}, {"measurement": "inhibition at 12.5 ppm", "setting": "[1]", "value": 100, "unit": "%"}, {"measurement": "inhibition at 25 ppm", "setting": "[1]", "value": 100, "unit": "%"}, {"measurement": "inhibition at 50 ppm", "setting": "[1]", "value": 100, "unit": "%"}, {"measurement": "inhibition at 100 ppm", "setting": "[1]", "value": 100, "unit": "%"}, {"measurement": "activity on Boophilus microplus larvae (conclusion)", "setting": "[2]", "value": "remarkable activity"}, {"measurement": "mortality at 1 ppm", "setting": "[2]", "value": 100, "unit": "%"}, {"measurement": "mortality at 10 ppm", "setting": "[2]", "value": 100, "unit": "%"}, {"measurement": "mortality at 100 ppm", "setting": "[2]", "value": 100, "unit": "%"}, {"measurement": "LC50", "setting": "Aphis cracivora", "value": 0.6, "unit": "µg/mL"}]}, {"compound": "CC(OC(=O)[C@@H]1[C@@H](/C=C(/c2ccc(Cl)cc2)C(F)(F)F)C1(C)C)c1cccc(Oc2ccccc2)n1", "note": "(stereo partly drawn) [Example 5, 1-(6-phenoxy-2-pyridyl)-ethyl [1R-(1α,(RS), 3β]] 2,2-dimethyl-3-[(ΔZ)-2-(4-chlorophenyl)-3,3,3-trifluoro-1-propenyl]-cyclopropane carboxylate]", "values": [{"measurement": "activity on inhibition of reproduction of Boophilus microplus ticks (conclusion)", "setting": "[1]", "value": "remarkable activity"}, {"measurement": "inhibition at 0.38 ppm", "setting": "[1]", "value": 85, "unit": "%"}, {"measurement": "inhibition at 0.75 ppm", "setting": "[1]", "value": 100, "unit": "%"}, {"measurement": "inhibition at 1.5 ppm", "setting": "[1]", "value": 100, "unit": "%"}, {"measurement": "inhibition at 3.1 ppm", "setting": "[1]", "value": 100, "unit": "%"}, {"measurement": "inhibition at 6.2 ppm", "setting": "[1]", "value": 100, "unit": "%"}, {"measurement": "inhibition at 12.5 ppm", "setting": "[1]", "value": 100, "unit": "%"}, {"measurement": "inhibition at 25 ppm", "setting": "[1]", "value": 100, "unit": "%"}, {"measurement": "inhibition at 50 ppm", "setting": "[1]", "value": 100, "unit": "%"}, {"measurement": "inhibition at 100 ppm", "setting": "[1]", "value": 100, "unit": "%"}, {"measurement": "activity on Boophilus microplus larvae (conclusion)", "setting": "[2]", "value": "remarkable activity"}, {"measurement": "mortality at 1 ppm", "setting": "[2]", "value": 100, "unit": "%"}, {"measurement": "mortality at 10 ppm", "setting": "[2]", "value": 100, "unit": "%"}]}]}
